Measured values as given in patent US9205121B2, “Echinacea formulation” (Integria Healthcare (Australia) PTY LTD, priority 2004, dated 2015).

Columns and labels:
Format in all cases: in vitro ADME
human liver microsomes = system: human liver microsomes
Protocol: Livers were obtained from organ donors according to procedures is approved by the University of Queensland ethics committees. Samples of human liver were frozen in liquid nitrogen and stored at −70° C. prior to use. Microsomes were prepared according to the method of Guengerich except that microsomes were subjected to a final wash in 10 mM Tris-acetate, 1 mM EDTA and 20% glycerol pH 7.4 (resuspension buffer) to remove residual drugs (e.g. phenytoin—data not shown) present in donor livers.
Incubations (0.5 mL) with tissue fractions contained either the microsomal fraction at […] or the cytosolic fraction at 5 mg/mL protein in 100 mM potassium phosphate (pH 7.4) supplemented with is substrates (synthetic alkylamides 6, 11, 3 and 12 or the alkylamide fraction from the ethanolic liquid as required—see Figure legends for concentrations used) added from ethanolic stocks. Final ethanol concentrations were either 0.70% or 0.96% and were consistent in each assay. Reactions were initiated by the addition of an NADPH-generating system consisting of (final concentrations) […] NADP+, 10 mM glucose-6-phosphate and 0.5 μ/mL glucose-6-phosphate dehydrogenase. Negative controls and cytosolic incubations lacked an NADPH-generating system. Reaction mixtures were incubated at 37° C. with gentle agitation for the duration of each experiment. Reactions were terminated by addition of an equal volume of 100% methanol to a sample aliquot. Diluted samples were then centrifuged at 16000×g for 2 minutes and supernatants stored at −20° C. until analysis by LCMS.
Alkylamide concentrations in samples were determined by LCMS using a gradient HPLC system (Shimadzu LC1OAT) coupled to a quadrupole mass spectrometer (Shimadzu, QP8000a) operating in positive SIM mode with an APCI interface. The mobile phases were a mixture of water and acetonitrile. Alkylamides 6 and 3 were detected using a 65% acetonitrile isocratic run. Alkylamides 11 and 12 were detected using an 85% acetonitrile isocratic run. The alkylamide fraction was analysed using a gradient that increased from 20% to 40% acetonitrile over the first 5 minutes, then to 80% acetonitrile over the following 15 minutes and to 100% over the next 3 minutes followed by a re-equilibration period at 20% acetonitrile prior to the next injection. A similar gradient was used in scan and then SIM (M+1 of 248, 264, 246, 192, 280 and 282) modes to identify metabolites of 3. A C18, 3 m, 100×2.00 mm Phenomenex Luna column was used with a solvent flow rate of 0.3 mL/minute. All alkylamides were linear in the range 0.001-10 mg/mL (R^2>0.9) with a coefficient of variation between 4 and 5.
A number of pure, synthetic alkylamides (6, 11 3 and 12 as shown in FIG. 1) as well as the complex mixture of alkylamides obtained from an ethanolic extract of Echinacea were investigated for their susceptibility to liver P450-mediated degradation in microsomal preparations from four different subjects. The concentration of each substrate remaining at the given time points was quantified with LCMS and rates of substrate depletion were calculated as a percentage of the original concentration. […] From FIG. 3 it can be seen that there was a clear difference in the ability of the liver microsomal P450s to metabolise the synthetic 2-ene and the 2,4-diene alkylamides. […] In contrast, the 2,4-dienes were rapidly metabolised with only 9±2% of the original concentration of 3 and 2±1% of the original concentration of 12 detected after 2 hours. […]

P450 2C8 = biological target: T1, P450 2C8 (Homo sapiens, UniProt P10632); assay: metabolism of 3 by recombinant human P450; conditions: recombinant P450 2C8, preliminary screen
T1 construct: made in house; host or cells: Escherichia coli, bacterial membrane fraction, bicistronic construct in pCW
T1 sequence (P10632 1-490): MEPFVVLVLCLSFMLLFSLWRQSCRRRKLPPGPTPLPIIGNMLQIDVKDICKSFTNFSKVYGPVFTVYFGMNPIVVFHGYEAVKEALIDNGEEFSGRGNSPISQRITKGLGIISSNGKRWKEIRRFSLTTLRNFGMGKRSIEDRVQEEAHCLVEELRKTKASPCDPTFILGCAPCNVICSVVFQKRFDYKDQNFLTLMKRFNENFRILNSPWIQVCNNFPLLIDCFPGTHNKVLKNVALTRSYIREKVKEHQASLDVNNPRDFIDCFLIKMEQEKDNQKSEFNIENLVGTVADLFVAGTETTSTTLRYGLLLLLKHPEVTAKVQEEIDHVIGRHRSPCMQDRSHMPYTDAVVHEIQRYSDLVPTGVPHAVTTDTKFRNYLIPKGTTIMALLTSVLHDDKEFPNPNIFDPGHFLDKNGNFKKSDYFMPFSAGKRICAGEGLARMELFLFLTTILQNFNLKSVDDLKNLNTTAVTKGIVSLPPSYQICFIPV
From the text: Recombinant P450s were co-expressed with hNPR in Escherichia coli according to the general procedures outlined previously. Recombinant P450 preparations were obtained from bacteria transformed with bicistronic expression vectors for P450s 1A1, 1A2, 2D6, 2E1 and 3A4 [6]; 1B1 [10]; 2A6 [8]; P450 2B6 [11]; 2C9 (wild type; P450 2C9*1) and 2C19 [12]; 3A5 and 3A7 [12] and 4A11 (D. Kim and F. P. Guengerich, unpublished data). cDNAs for P450s 2C8 and 2C18 were obtained from Prof D. J. Birkett (Flinders University of South Australia) and Prof. Philippe Beaune (INSERM U490, Universite Rene Descartes, Paris V, France) respectively, and bicistronic constructs in pCW were made according to previously published methods. Membranes from cells transformed with the monocistronic expression vector for recombinant human reductase, pCW′/hNPR, were used as a negative control. Expression of P450s and preparation of bacterial membrane fractions was done according to established methods.
Incubations (0.2 mL) with recombinant enzyme preparations were performed as described above except that bacterial membrane preparations were used at 0.1 μM P450. For P450s 3A4 and 3A5, reductase concentrations were supplemented to two fold the P450 concentration by addition of membranes from cells expressing reductase alone. For P450s 2C9 and 2C19, reductase concentrations were supplemented to five fold the P450 concentration. Negative controls contained bacterial membranes derived from cells transformed with the empty expression vector alone (“pCW”) or cells expressing only reductase (“hNPR”). Negative controls contained membranes added at total protein (“pCW”) or reductase “hNPR”) concentrations at the upper limit of those present in incubations with recombinant P450 preparations.
A preliminary screen was performed to investigate metabolism of 3 by recombinant human P450s.

liver P450 = assay: inhibition of 2,4-diene alkylamide metabolism by co-incubation with a 2-ene alkylamide in human liver microsomes; conditions: co-incubation of 3 with 6 at equimolar concentrations, 90 minutes
Protocol: Compound 3 was present at 20 μM in all experiments while 6 was present at (●) 0, (∘) 0.22, (▪) 2.2, ( ) 5.5, (▴) 9.0 and (Δ) 20 uM. Each point represents the mean for one microsomal preparation examined in duplicate. The deviation was less than 15 for each point.
Incubations (0.5 mL) with tissue fractions contained either the microsomal fraction at 0.1-0.2 mM P450 or the cytosolic fraction at 5 mg/mL protein in 100 mM potassium phosphate (pH 7.4) supplemented with is substrates (synthetic alkylamides 6, 11, 3 and 12 or the alkylamide fraction from the ethanolic liquid as required—see Figure legends for concentrations used) added from ethanolic stocks. Final ethanol concentrations were either 0.70% or 0.96% and were consistent in each assay. Reactions were initiated by the addition of an NADPH-generating system consisting of (final concentrations) 250 mM NADP+, 10 mM glucose-6-phosphate and 0.5 μ/mL glucose-6-phosphate dehydrogenase. Negative controls and cytosolic incubations lacked an NADPH-generating system. Reaction mixtures were incubated at 37° C. with gentle agitation for the duration of each experiment. Reactions were terminated by addition of an equal volume of 100% methanol to a sample aliquot. Diluted samples were then centrifuged at 16000×g for 2 minutes and supernatants stored at −20° C. until analysis by LCMS.

Question: Which “rate of alkylamide metabolism relative to the rate found for 6” value (human liver microsomes) does the source give for `C/C=C\C=C/CC/C=C/C=C/C(=O)NCC(C)C` [alkylamide 3, (2E,4E,8Z,10Z)—N-isobutyldodeca-2,4,8,10-tetraenamide] here?
Answer: The value was “seven fold higher”.

Question: And the “% of initial levels still present” value (human liver microsomes; human, 2 h, pH 7.4)?
Answer: Its value is 66±26%.

Question: What about the “consumption of 3” value (P450 2C8) of the same compound?
Answer: The value was “observed”.

Question: And the “% of the original concentration of 3 detected” value (liver P450)?
Answer: Its value is 83±4%.
